Results reported in ChEMBL document CHEMBL3885861, “Open TG-GATES”.

Species: Rattus norvegicus
Test: Open TG-GATES - Regimen: Single
Format: toxicity, organism-based, Sprague-Dawley
Design: regimen Single, gender Male, age 6 weeks
Details: in vivo, po, 300 mg/kg, route gavage, dose level Middle; for APTT / Bas / Eos / Fbg / Hb / Ht / Lym / MCH / MCHC / MCV / Mono / Neu / PT / Plat / RBC / Ret / WBC: tissue Blood; for KIDNEY_L / KIDNEY_R / KIDNEY_TOTAL: tissue Kidney; for LIVER: tissue Liver; for A/G / ALP / ALT / AST / BUN / CRE / Ca / Cl / DBIL / GLC / IP / K / LDH / Na / PL / RALB / TBIL / TC / TG / TP / gamma-GTP: tissue Plasma

## CC[C@@H](CO)NCCN[C@@H](CC)CO [ETHAMBUTOL]
3 h
  TERMINAL_BW: 232.2 g
  APTT: 22.9 s
  Bas: 0%
  Eos: 0.6%
  Fbg: 301.8 mg/dL
  Hb: 13.7 g/dL
  Ht: 40.8%
  Lym: 78%
  MCH: 22 pg
  MCHC: 33.6%
  MCV: 65.5 fL
  Mono: 2.8%
  Neu: 18.2%
  PT: 15.5 s
  Plat: 120.7 x10_4/uL
  RBC: 623.8 x10_4/ul
  Ret: 8.5%
  WBC: 63.4 x10_2/uL
  KIDNEY_L: 1 g
  KIDNEY_R: 1 g
  KIDNEY_TOTAL: 2 g
  LIVER: 10.9 g
  A/G: 1.3
  ALP: 1703.4 IU/L
  ALT: 42.6 IU/L
  AST: 68.2 IU/L
  BUN: 12.2 mg/dL
  CRE: 0.1 mg/dL
  Ca: 10.3 mg/dL
  Cl: 106.8 meq/L
  DBIL: 0.002 mg/dL
  GLC: 190 mg/dL
  IP: 8.9 mg/dL
  K: 3.8 meq/L
  LDH: 187.2 IU/L
  Na: 141 meq/L
  PL: 137.4 mg/dL
  RALB: 3 g/dL
  TBIL: 0.02 mg/dL
  TC: 78.2 mg/dL
  TG: 54.2 mg/dL
  TP: 5.4 g/dL
  gamma-GTP: 1.6 IU/L
6 h
  TERMINAL_BW: 224.6 g
  APTT: 22.5 s
  Bas: 0%
  Eos: 1.2%
  Fbg: 321.2 mg/dL
  Hb: 14 g/dL
  Ht: 41%
  Lym: 75%
  MCH: 21.5 pg
  MCHC: 34.1%
  MCV: 63.1 fL
  Mono: 2.2%
  Neu: 20.6%
  PT: 15.6 s
  Plat: 124.9 x10_4/uL
  RBC: 649.8 x10_4/ul
  Ret: 7.7%
  WBC: 89.1 x10_2/uL
  KIDNEY_L: 1 g
  KIDNEY_R: 1 g
  KIDNEY_TOTAL: 2 g
  LIVER: 9.9 g
  A/G: 1.1
  ALP: 1416.2 IU/L
  ALT: 39.4 IU/L
  AST: 68.6 IU/L
  BUN: 10 mg/dL
  CRE: 0.1 mg/dL
  Ca: 10.2 mg/dL
  Cl: 106 meq/L
  DBIL: 0.002 mg/dL
  GLC: 183.6 mg/dL
  IP: 9.1 mg/dL
  K: 4.1 meq/L
  LDH: 169 IU/L
  Na: 141 meq/L
  PL: 139.8 mg/dL
  RALB: 2.9 g/dL
  TBIL: 0.022 mg/dL
  TC: 74.6 mg/dL
  TG: 76.6 mg/dL
  TP: 5.5 g/dL
  gamma-GTP: 1.8 IU/L
9 h
  TERMINAL_BW: 217.6 g
  APTT: 23 s
  Bas: 0%
  Eos: 0.6%
  Fbg: 334 mg/dL
  Hb: 13.6 g/dL
  Ht: 40.2%
  Lym: 74.4%
  MCH: 21.4 pg
  MCHC: 33.7%
  MCV: 63.5 fL
  Mono: 1.8%
  Neu: 22.2%
  PT: 16.1 s
  Plat: 122 x10_4/uL
  RBC: 633.4 x10_4/ul
  Ret: 7.8%
  WBC: 74.5 x10_2/uL
  KIDNEY_L: 1 g
  KIDNEY_R: 1 g
  KIDNEY_TOTAL: 2.1 g
  LIVER: 9.7 g
  A/G: 1.2
  ALP: 1255.8 IU/L
  ALT: 37 IU/L
  AST: 68.2 IU/L
  BUN: 9.6 mg/dL
  CRE: 0.1 mg/dL
  Ca: 10.4 mg/dL
  Cl: 107 meq/L
  DBIL: 0 mg/dL
  GLC: 176.8 mg/dL
  IP: 9.4 mg/dL
  K: 3.9 meq/L
  LDH: 139.4 IU/L
  Na: 141.6 meq/L
  PL: 136.8 mg/dL
  RALB: 3 g/dL
  TBIL: 0.036 mg/dL
  TC: 78.6 mg/dL
  TG: 53.4 mg/dL
  TP: 5.6 g/dL
  gamma-GTP: 1.8 IU/L
24 h
  TERMINAL_BW: 235.9 g
  APTT: 22 s
  Bas: 0%
  Eos: 1%
  Fbg: 339.2 mg/dL
  Hb: 13.7 g/dL
  Ht: 39.7%
  Lym: 81.6%
  MCH: 22 pg
  MCHC: 34.6%
  MCV: 63.5 fL
  Mono: 3%
  Neu: 13.2%
  PT: 15.9 s
  Plat: 117.6 x10_4/uL
  RBC: 625.8 x10_4/ul
  Ret: 7.3%
  WBC: 107.5 x10_2/uL
  KIDNEY_L: 1.1 g
  KIDNEY_R: 1.1 g
  KIDNEY_TOTAL: 2.2 g
  LIVER: 12.3 g
  A/G: 1.2
  ALP: 1520.4 IU/L
  ALT: 46 IU/L
  AST: 69.4 IU/L
  BUN: 14.6 mg/dL
  CRE: 0.1 mg/dL
  Ca: 10.5 mg/dL
  Cl: 105.2 meq/L
  DBIL: 0 mg/dL
  GLC: 187.4 mg/dL
  IP: 8.5 mg/dL
  K: 3.9 meq/L
  LDH: 145.8 IU/L
  Na: 141 meq/L
  PL: 155.6 mg/dL
  RALB: 3.1 g/dL
  TBIL: 0.014 mg/dL
  TC: 82.4 mg/dL
  TG: 89.4 mg/dL
  TP: 5.7 g/dL
  gamma-GTP: 2 IU/L
